Assays:
Format in all cases: functional
SF-268 = assay: Growth inhibition of human SF268 cells; settings: read-out: pTGI (converted)
SNB-19 = assay: Growth inhibition of human SNB19 cells
SNB-75 = assay: Growth inhibition of human SNB75 cells
MDA-MB-435 = assay: Growth inhibition of human MDA-MB-435 cells
M14 = assay: Growth inhibition of human M14 cells
[1] = Growth inhibition of human UACC257 cells
[2] = Growth inhibition of human NCI-ADR-RES cells
SK-OV-3 = assay: Growth inhibition of human SKOV3 cells
A498 = assay: Growth inhibition of human A498 cells
[3] = Growth inhibition of human RXF393 cells
SN12C = assay: Growth inhibition of human SN12C cells
DU-145 = assay: Growth inhibition of human DU145 cells
MDA-MB-231 = assay: Growth inhibition of human MDA-MB-231 cells
[4] = Growth inhibition of human Hs 578T cells
T47D = assay: Growth inhibition of human T47D cells
MDA-MB-468 = assay: Growth inhibition of human MDA-MB-468 cells
[5] = read-out: pLC50 (the source's name) (converted)

Compound: COC(=O)[C@]1(C)CCC[C@]2(C)[C@H]3C[C@H]4C(C(C)C)=C[C@]3(CC[C@H]21)[C@@H]1/C(=N/O)CC/C(=N\O)[C@@H]14
- TGI (SF-268): 17 µM
- GI50 (SNB-19): 11.5 µM
- CC50 (SNB-19; [5]): 55 µM
- TGI (SNB-19; read-out: pTGI (converted)): 25.1 µM
- GI50 (SNB-75): 4.9 µM
- CC50 (SNB-75; [5]): 63.1 µM
- TGI (SNB-75; read-out: pTGI (converted)): 20.4 µM
- GI50 (MDA-MB-435): 4.9 µM
- CC50 (MDA-MB-435; [5]): 95.5 µM
- TGI (MDA-MB-435; read-out: pTGI (converted)): 23.4 µM
- GI50 (M14): 5.25 µM
- CC50 (M14; [5]): 55 µM
- TGI (M14; read-out: pTGI (converted)): 18.6 µM
- GI50 ([1]; UACC-257): 3.63 µM
- CC50 ([1]; UACC-257, read-out: pLC50 (the source's name) (converted)): 38.9 µM
- TGI ([1]; UACC-257, read-out: pTGI (converted)): 12 µM
- GI50 [2]: 3.16 µM
- CC50 ([2]; read-out: pLC50 (converted)): > 100 µM
- TGI ([2]; read-out: pTGI (converted)): 9.55 µM
- GI50 (SK-OV-3): 10.2 µM
- CC50 (SK-OV-3; [5]): 47.9 µM
- TGI (SK-OV-3; read-out: pTGI (converted)): 22.4 µM
- GI50 (A498): 2.24 µM
- CC50 (A498; [5]): 25.1 µM
- TGI (A498; read-out: pTGI (converted)): 6.76 µM
- GI50 ([3]; RXF 393): 2.14 µM
- CC50 ([3]; RXF 393, read-out: pLC50 (the source's name) (converted)): 8.91 µM
- TGI ([3]; RXF 393, read-out: pTGI (converted)): 4.37 µM
- GI50 (SN12C): 1.86 µM
- CC50 (SN12C; [5]): 8.13 µM
- TGI (SN12C; read-out: pTGI (converted)): 3.89 µM
- GI50 (DU-145; DU-145): 3.02 µM
- CC50 (DU-145; DU-145, read-out: pLC50 (converted)): > 100 µM
- TGI (DU-145; DU-145, read-out: pTGI (converted)): 15.8 µM
- GI50 (MDA-MB-231): 7.24 µM
- CC50 (MDA-MB-231; [5]): 56.2 µM
- TGI (MDA-MB-231; read-out: pTGI (converted)): 22.4 µM
- GI50 [4]: 0.01 µM
- CC50 [4, 5]: 11.2 µM
- TGI ([4]; read-out: pTGI (converted)): 2.04 µM
- GI50 (T47D): 1.91 µM
- CC50 (T47D; [5]): 24.5 µM
- TGI (T47D; read-out: pTGI (converted)): 4.68 µM
- GI50 (MDA-MB-468): 4.68 µM
- CC50 (MDA-MB-468; [5]): 64.6 µM
- TGI (MDA-MB-468; read-out: pTGI (converted)): 20 µM

— ChEMBL document CHEMBL3352746, “Synthesis and anticancer activity of quinopimaric and maleopimaric acids’ derivatives” (Bioorg Med Chem, 2014)
